Experimental data: patent publication US20230391765A1, “HETEROBIFUNCTIONAL COMPOUNDS AS DEGRADERS OF ENL” (ICAHN SCHOOL OF MEDICINE AT MOUNT SINAI, priority 2020, published 2023)

Key:
[1] = tested on: ENL-dependent MLL-rearranged leukemia cells; settings: cited from earlier work
[2] = tested on: ENL target genes; test: RT-qPCR of ENL target genes in MOLM13 cells; assay type: cell-based; settings: MOLM13 cells, 8 μM for 24 h
Description: MOLM13 cells were treated with LQ076-122 (FIG. 14A) and LQ081-108 (FIG. 14B) at 0.5, 1, 2, 4, and 8 μM for 24 h. […] RT-qPCR analysis was performed to detect the mRNA levels of selected ENL target genes.
Total RNA was extracted using the RNeasy Plus kit (Qiagen) and reverse-transcribed using the iScript cDNA Synthesis kit (Bio-Rad). RT-qPCR was performed using the Power SYBR Green PCR Master Mix (Applied Biosystems) on the CFX96 Real-Time PCR system (Bio-Rad). Gene expressions were calculated following normalization to 18s rRNA amounts using the comparative cycle threshold (Ct) method.

[3] = tested on: MV4; 11 cells; test: Apoptosis assay (FITC Annexin V), MV4; 11 cells; assay type: cell-based; settings: 11 cells, 1, 2 and 4 μM for 24 h
Description: (§1) Apoptotic cells were measured by the FITC Annexin V Apoptosis Detection Kit (BD Biosciences).
(§2) MV4; 11 or MOLM13 cells were seeded at 0.2×10^6 cells/mL density. Cells were treated with DMSO or ENL degraders at indicated concentrations. Each treatment was done in triplicates. After 24 h treatment, cells were collected and washed with ice-cold PBS once and resuspended in 250 μL of 1× binding buffer containing 5 μL of FITC-Annexin V and PI (BD Biosciences). After 15 min incubation at room temperature in the dark, 250 μL of 1× binding buffer was added and flow cytometry analysis was performed.

[4] = tested on: MOLM13 cells; test: Apoptosis assay (FITC Annexin V), MOLM13 cells; assay type: cell-based; settings: MOLM13 cells, 1, 2 and 4 μM for 24 h
Description: as §1, §2

## C[C@H]1CCCN1Cc1nc2cc(NC(=O)c3ccc4c(cnn4C)c3)ccc2[nH]1 [SGC-iMLLT, reference compound]
[1]
  inhibition of cell growth: largely ineffective in inhibiting the growth
[2]
  ENL target gene expression (mRNA levels): did not dramatically affect these genes
[3]
  induction of apoptosis: but not the negative control compound LQ108-4 or SGC-iMLLT, induced apoptosis
[4]
  induction of apoptosis: but not the negative control compound LQ108-4 or SGC-iMLLT, induced apoptosis
